Assay results published in patent US20050144659A1, “Animals and cells containing a mutated alpha2delta gene” (priority 2003, published 2005).

Experiments:
[1] = tested on: R217A WT, HET and KI mice and parent strains; test: Vogel water-lick conflict; format: in vivo, mouse; conditions: for anxiolytic-like effect: R217A knockins
From the text: Albino or C57BL/6J-Tyr were also included in the experiments for comparison purposes. Male C57BL/6J (Jackson Laboratories), and 129S6/SvEV (Taconic Farms) mice were received at 8 weeks old in quantities sufficient for each study to be completed in one experiment. Parent strains were housed one week prior to testing.
On the side of each chamber (1.5 in. above the floor) a module optical lickometer was mounted. The lickometer was used to measure licking from a drink tube attached to a water bottle mounted on the exterior of the chamber. A photo beam was piped via glass rods across a gap at the end of the drink tube. The subject's tongue breaks the beam when it drinks from the tube and each lick was automatically recorded. […] The reduced chamber space limited the animal's activity and directed behavior towards the drink tube during a 10-minute session. The front and back of the test chamber was made of clear Plexiglas. The front door was covered to reduce distractions from inside the test room. The back of the test chamber faced a wall, away from the flow of traffic in the testing room, and remained uncovered to provide the opportunity for observations. Shock was delivered between the grid floor and the drink tube using a (Coulbourn) programmable universal shocker for a duration of one second, but terminated immediately when contact between the animal and drink tube was broken.
PROCEDURE: On day one, after 24 hours of water deprivation, experimental subjects were placed in the test chambers and allowed to drink unpunished for a 10-minute training session. Mice were required to complete a 100-150 lick criteria during the training session. […] Immediately after the day one session mice were returned to their home cages and deprived of water and food for an additional 24 hours. On test day two, mice were dosed by intraperitoneal (IP) injection with vehicle or test compound. After a 60 or 120-minute absorption period mice were placed into the test chambers for a 10-minute test session. During the test, shock was delivered on a fixed ratio (FR) 10 schedule. Therefore, after every 10th lick the subject received a mild shock. […] A low number of shock episodes accepted reflects anxiety-related behavior. Standard anxiolytic drugs produce effects that allow mice to overcome the behavioral inhibition and drink despite the shock. […] All data were analyzed using a one-way ANOVA/Dunn's Method.
DRUGS: Pregabalin was dissolved in physiological saline for all experiments. The positive control diazepam was suspended in 2% cremophor in physiological saline.
C57BL/6J mice were tested at 0.4 mA, C57BL/6J-Tyr mice were tested at 0.1 mA and 129S6/SvEV mice were tested at 0.6 mA. […]

[2] = tested on: R217A mutant lines and background mouse strains; test: Maximal electroshock procedure (MES); format: in vivo; conditions: for responsiveness to anticonvulsant effects: all background strains, mutant, heterozygous mutant and wildtype (all lines)
Protocol: Anticonvulsant effectiveness was determined by using an electroconvulsive seizure model as described elsewhere [White et al., 1995]. Mice had free access to food and water and were housed in a temperature and light-controlled environment (12 h on/12 h off) prior to drug administration. Electroshock in mice was delivered using corneal electrodes with varied electroshock intensity. Current was delivered (60 Hz sinusoidal current, 11 to 17 mA baseline to peak vs. 50 mA for 0.2 s) using a constant-current stimulator (Wahlquist Instruments, Salt Lake City, Utah). The intensities of current necessary to produce tonic extensor seizures for each mouse strain and mutant lines in all of the mice were determined. These currents were then used for further testing of mice with pregabalin. All dose-response testing was conducted at the previously determined time of peak drug effect. Groups of 10 mice each were give various intraperitoneal doses of pregabalin dissolved in 0.9% saline, diazepam (veh) or phenyloin and given in a volume of 10 ml/kg of body weight. ED50 values (calculated dose required to inhibit the hindlimb tonic-extensor component of the maximal electroshock seizure in 50% of the animals tested) were determined by probit analysis [Litchfield, Wilcoxon], and used to compare relative potency between compounds. At least four groups of mice and each animal was employed once. The animals, pretreated with different doses of the tested drugs, were challenged with one electroshock at previously determined times of peak drug effect (pregabalin: 120 min; diazepam: 60 min; phenyloin; 60 min).
Anticonvulsant effects of pregabalin were reduced in −/− mice as compared to the +/+mice.

α2/δ2 = α2/δ2 (Homo sapiens, UniProt Q9NY47); conditions: background statement; cited from earlier work
[3] = tested on: brain membranes from the R217A mutant mouse; test: 3H gabapentin binding to mouse brain membranes; conditions: R217A mutant mouse in comparison to wildtype mice; tracer 3H gabapentin; FIG. 3
Protocol: Membranes were prepared from whole mouse brains. […] Total binding was determined in the absence of competitor. Non-specific binding was determined in the presence of 10 μM unlabeled pregabalin.

[4] = tested on: α2/δ1 R217A wild type, heterozygous, and homozygous mice; test: Formalin foot-pad procedure (formalin-induced hyperalgesia); format: in vivo, mouse; conditions: mice with arg 217 changed to alanine versus heterozygous and wildtype; PO, 120 minutes prior to testing; FIG. 4
Protocol: Male α2/δ1 R217A wild type, heterozygous, and homozygous mice, weighing 1940 grams, were used for testing. Animals were maintained on a 12 hour light/dark cycle with food and water available ad libitum. Animals were food deprived overnight the day before testing. On test day, animals were acclimated to the observation chambers for approximately 60 min. The observation chambers were eight inch square boxes consisting of solid, acrylic plastic mirrors for the floor and 3 walls. The fourth wall was clear acrylic that allowed for observation. Animals were dosed PO with either vehicle or pregabalin, 120 minutes prior to testing at a dose volume 10 mL/kg. At test time, animals received a 25 μL injection of a 5% formalin solution in water in the plantar surface of the left hind foot. […] These behaviors were timed using a hand-held stopwatch and recorded at 5 min intervals. Data was analyzed by the two distinct phases of responding. Early phase responding included Minutes 0-10, and late phase responding included Minutes 1145. The total time spent licking by drug-treated animals in each phase was compared to the total time spent licking by vehicle-treated animals.
FIG. 4 depicts formalin-induced hyperalgesia in R217A mutant homozygous mice in comparison to that of heterozygous and wildtype mice.

[5] = tested on: α2/δ1 R217A wild type and homozygous mice; test: Tail Suspension Test (TST); format: in vivo, mouse; conditions: R217A homozygous mutant versus wildtype mice; dosed 120 minutes prior to testing; FIG. 5
Protocol: Male α2/δ1 R217A wild type and homozygous mice, weighing 22-35 grams, were used for testing. Animals were maintained on a 12 hour light/dark cycle with food and water available ad libitum. Animals were food deprived overnight the day before testing. On test day, animals were placed by groups of 8 into holding cages to acclimate for sixty minutes prior to dosing. Vehicle or pregabalin was administered 120 minutes prior to testing at a dose volume of 10 mL/kg. At test time, a piece of transparent tape was placed around the distal portion of the tail. The tape was then attached to a hook connected to an electro-mechanical apparatus that recorded the amount of time a mouse moved and the force used during movement. The hook was located at the top of a 24×18 cm testing chamber. Animals were completely suspended in air approximately 5 cm off the floor of the chamber for six minutes. Mean time of struggling and force of movement were then calculated for each group of eight.
Animals are placed by groups of eight into holding cages to acclimate for thirty to sixty minutes prior to dosing. Treatments are generally administered 60 to 120 minutes prior to testing, although this also varies with specific compounds. At test time, a piece of scotch tape is placed around the distal portion of the tail. […]

[6] = tested on: R217A knock-in and wild-type mice; test: Chronic constriction injury (CCI)-induced static allodynia, von Frey hairs; format: in vivo, mouse; conditions: sub cutaneous 30-100 mg/kg, FIG. 8
From the text: Animals were placed in an anaesthetic chamber and anaesthetised with a 2% isofluorane O2 mixture. The right hind thigh is shaved and swabbed with 1% iodine. Animals were then transferred to a homeothermic blanket for the duration of the procedure and anaesthesia maintained during surgery via a nose cone. The skin was cut along the line of the thigh bone. The common sciatic nerve was exposed at the middle of the thigh by blunt dissection through biceps femoris. Proximal to the sciatic trifurcation, about 5 mm of nerve was freed by inserting forceps under the nerve and the nerve gently lifted out of the thigh. The forceps were gently opened and closed several times to aid clearance of the fascia from the nerve. […]
Animals were habituated to wire test cages prior to the assessment of allodynia. Static allodynia was evaluated by application of von Frey hairs (Stoelting, Wood Dale, Ill., U.S.A.) in ascending order of force ([…], 0.4, 0.6, 1.0, 1.5 and 2.0 g) to the plantar surface of hind paws. […] The lowest amount of force required to elicit a response was recorded as paw withdrawal threshold (PWT) in grams. […]
Baseline (BL) paw withdrawal thresholds (PWT) to von Frey hairs were assessed. Following drug administration PWT were re-assessed for up to 4 h. […]

Sequence of α2/δ2 (Q9NY47 19-1150): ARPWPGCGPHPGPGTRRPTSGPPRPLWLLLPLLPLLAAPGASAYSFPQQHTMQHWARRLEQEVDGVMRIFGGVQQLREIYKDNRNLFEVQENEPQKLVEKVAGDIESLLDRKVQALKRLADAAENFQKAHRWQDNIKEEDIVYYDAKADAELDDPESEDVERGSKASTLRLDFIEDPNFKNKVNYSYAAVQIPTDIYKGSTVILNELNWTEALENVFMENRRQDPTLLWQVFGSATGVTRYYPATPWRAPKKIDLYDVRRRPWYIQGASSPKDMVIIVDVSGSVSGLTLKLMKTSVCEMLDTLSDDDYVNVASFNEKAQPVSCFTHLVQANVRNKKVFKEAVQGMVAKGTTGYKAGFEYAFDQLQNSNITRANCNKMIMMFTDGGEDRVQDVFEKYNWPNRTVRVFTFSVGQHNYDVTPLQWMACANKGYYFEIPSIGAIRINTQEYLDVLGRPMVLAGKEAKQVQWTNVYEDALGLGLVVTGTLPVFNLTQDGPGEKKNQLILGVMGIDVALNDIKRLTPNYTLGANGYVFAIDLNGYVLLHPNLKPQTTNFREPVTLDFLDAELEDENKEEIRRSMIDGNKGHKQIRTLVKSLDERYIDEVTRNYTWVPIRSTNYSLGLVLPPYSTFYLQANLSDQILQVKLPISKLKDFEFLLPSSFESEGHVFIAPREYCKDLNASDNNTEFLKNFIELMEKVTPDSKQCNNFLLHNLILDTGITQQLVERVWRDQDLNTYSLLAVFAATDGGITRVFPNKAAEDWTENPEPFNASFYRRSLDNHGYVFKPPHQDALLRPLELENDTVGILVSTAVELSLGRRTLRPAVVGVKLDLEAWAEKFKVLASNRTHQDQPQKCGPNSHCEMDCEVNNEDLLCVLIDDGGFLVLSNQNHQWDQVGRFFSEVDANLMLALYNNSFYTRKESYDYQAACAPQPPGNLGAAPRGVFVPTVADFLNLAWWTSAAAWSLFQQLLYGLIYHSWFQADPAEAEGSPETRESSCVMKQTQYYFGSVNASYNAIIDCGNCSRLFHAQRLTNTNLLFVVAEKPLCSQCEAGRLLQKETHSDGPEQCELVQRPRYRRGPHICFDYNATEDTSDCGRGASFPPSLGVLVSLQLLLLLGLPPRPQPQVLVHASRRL
Sequence of α2/δ2 (Q9NY47 1002-1150 partner limits assumed): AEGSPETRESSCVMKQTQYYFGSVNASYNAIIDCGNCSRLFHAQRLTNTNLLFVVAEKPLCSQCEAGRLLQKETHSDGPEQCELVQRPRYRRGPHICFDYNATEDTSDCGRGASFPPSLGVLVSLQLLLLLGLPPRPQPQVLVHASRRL

Question: Which anxiolytic-like effect [1] does the source give for CN1C(=O)CN=C(c2ccccc2)c2cc(Cl)ccc21 [diazepam] here?
Answer: Diazepam (+control) failed to produce an anxiolytic-like effect in R217A knockins. Data suggests 129S6-parent strain's genotype may be responsible for pharmacological profile of diazepam

Question: And the “responsiveness to anticonvulsant effects” value ([2]; FIG. 9)?
Answer: fully responsive

Question: For NCC1(CC(=O)O)CCCCC1 [gabapentin, 1-(aminomethyl)cyclohexaneacetic acid], which binding affinity (α2/δ2) is on record?
Answer: high affinity

Question: What about the “gabapentin binding to brain membranes” value [3] of the same molecule?
Answer: reduced, or greatly abolished

Question: For O=C1NC(=O)C(c2ccccc2)(c2ccccc2)N1 [phenyloin], which “responsiveness to anticonvulsant effects” value ([2]; FIG. 9) is on record?
Answer: fully responsive

Question: For CC(C)C[C@H](CN)CC(=O)O [pregabalin], which “efficacy in formalin-induced hyperalgesia (licking or biting of injected foot)” value [4] is on record?
Answer: reduced efficacy

Question: What about the “sedative and/or anxiolytic effect in TST” value [5] of the same molecule?
Answer: exerts its sedative and/or anxiolytic effect in TST through the α2/δ1 polypeptide

Question: What about the “effect on CCI-induced punctate allodynia (paw withdrawal threshold)” value ([6]; knock-in mice) of the same molecule?
Answer: no effect

Question: What about the “blockade of CCI-induced punctate allodynia (paw withdrawal threshold)” value ([6]; wild type mice) of the same molecule?
Answer: significant blockade

Question: What about the “increase @ 100 (punished responding)” value ([1]; Knockins, shock 0.7 mA, dose 100 (mg/kg IP)) of the same molecule?
Answer: non-significant

Question: And the anxiolytic-like effect [1]?
Answer: Pregabalin did not produce a significant anxiolytic-like effect in R217A knockins, and no evidence was obtained relating phenotype to particular parent strain

Question: And the “increase in punished licking” value ([1]; knock-in mice homozygous for R217A, compared to wild-type, heterozygous or back-ground strains)?
Answer: does not produce a statistically significant increase

Question: What about the “potency in protecting against seizures” value ([2]; mutant mice versus wild-type, heterozygous or back-ground strains) of the same molecule?
Answer: less potent

Question: What about the anticonvulsant effects ([2]; −/− mice as compared to +/+ mice, FIG. 9) of the same molecule?
Answer: reduced

Question: What about the “sensitivity to effects in MES” value ([2]; −/− mice versus +/+ mice, FIG. 9) of the same molecule?
Answer: less sensitive
